Assay results: patent US9593305B2, “Differentiation of pluripotent stem cells” (Janssen Biotech, Inc., priority 2008, dated 2017)

System: H1 human embryonic stem cells
Assay: Secondary screening with EGF/FGF4 in the absence of activin A (Example 4)
Type: cell-based
Conditions: for Cell Number: % of positive control / Cell Number: Average Total Cell Number / Sox17 Expression: % of positive control / Sox17 Expression: Average Total Intensity: 2.5 μM compound + 50 ng/ml EGF + 50 ng/ml FGF4, Wnt3a, no activin A, four days
Experimental: Clusters of H1 human embryonic stem cells were grown on reduced growth factor […]™ (Invitrogen; Cat #356231)-coated tissue culture plastic. Cells were passaged using collagenase (Invitrogen; Cat #Cat #17104-019) treatment and gentle scraping, washed to remove residual enzyme, and plated with even dispersal at a ratio of 1:1 (surface area) on reduced growth factor […]™-coated 96-well black plates (Packard ViewPlates; PerkinElmer; Cat #6005182) using volumes of 100 μl/well. Cells were allowed to attach as clusters and then recover log phase growth over a 1 to 3 day period, feeding daily with MEF conditioned medium supplemented with 8 ng/ml bFGF (R&D Systems; Cat #233-FB). Plates were maintained at 37° C., 5% CO2 in a humidified box throughout the duration of assay.
Stock concentrations for EGF (R&D Systems; Cat #236-EG) and FGF4 (R&D Systems; Cat #235-F4) were 250 ng/ml, each solubilized in PBS with 0.1% BSA (Sigma; Cat #A7888). Compounds were available as 5 mM stocks in 96-well plate format, solubilized in 100% DMSO (Sigma; Cat #D2650) and stored at −80° C. The compounds were further diluted to an intermediate concentration of 0.2 mM in 50 mM HEPES (Invitrogen; Cat #15630-080), 20% DMSO and stored at 4° C. All growth factors and inhibitors were prepared in a deep well, 96-well polypropylene plate, diluted to 5× intermediate stocks in DMEM:F12 base medium at the beginning of assay and stored at 4° C.
A secondary screening assay was conducted, testing in triplicate and feeding on alternate days over the four-day assay timeframe. Assays were initiated by aspirating culture medium from each well followed by three washes in PBS to remove residual growth factors and serum. Test volumes of 80 μl per well were added back containing DMEM:F12 base medium (Invitrogen; Cat #11330-032) supplemented with 0.625% FCS (HyClone; Cat #SH30070.03), 25 ng/ml Wnt3a (R&D Systems), and 3.125 μM compound plus 20 μl 5× stock of growth factors to yield a final concentration of 0.5% FCS, 20 ng/ml Wnt3a, and 2.5 μM compound plus 50 ng/ml EGF and 50 ng/ml FGF4 in the assay. Positive control wells (100 μl/well) contained the same base medium supplemented with 0.5% FCS, 20 ng/ml Wnt3a and 100 ng/ml activin A. Negative control wells (100 μl/well) contained the same base medium with 0.5% FCS and 20 ng/ml Wnt3a, omitting activin A.
On day 3, wells were aspirated and fed with 80 μl DMEM:F12 base medium supplemented with 2.5% FCS (HyClone) and 3.125 μM compound plus […] 5× stock of growth factors per well to yield a final concentration of 2% FCS and 2.5 μM compound (omitting Wnt3a) plus 50 ng/ml EGF and FGF4 in the assay. Positive control wells (100 μl/well) contained the same base medium supplemented with 2% FCS and 100 ng/ml activin A, omitting Wnt3a. Negative control wells (100 μl/well) contained the same base medium with 2% FCS, omitting both activin A and Wnt3a.
At the conclusion of four-days of culture, assay plates were washed twice with PBS, fixed with 4% paraformaldehyde (Alexis Biochemical; Cat #ALX-350-011) at room temperature for 20 minutes, then washed three times with PBS and permeabilized with 0.5% Triton X-100 (Sigma; Cat #T8760-2) for 20 minutes at room temperature. Cells were washed again three times with PBS and blocked with 4% chicken serum (Invitrogen; Cat 16110082) in PBS for 30 minutes at room temperature. Primary antibody (goat anti-human SOX17; R&D Systems; cat #AF1924) was diluted 1:100 in 4% chicken serum and added to each well for one hour at room temperature. Alexa Fluor 488 conjugated secondary antibody (chicken anti-goat IgG; Molecular Probes; Cat #AZ1467) was diluted 1:200 in PBS and added to each sample well after washing three times with PBS. To counterstain nuclei, 4 μg/ml Hoechst 33342 (Invitrogen; Cat #H3570) was added for ten minutes at room temperature. Plates were washed once with PBS and left in 100 μl/well PBS for imaging. […]

[1] = Table 3B most potent compounds, with EGF + FGF4, no activin A

O=C1NCCCc2cncc(c2)-c2ncnc(n2)Nc2cccc(c2)CN2CCCC1C2 (centres unmarked) [Compound 17, 3,5,7,14,20,26,31-Heptaazapentacyclo[22.3.1.1-2,6˜1˜8,12˜1˜14,18˜]hentriaconta-1(28), 2(31), 3,5,8(30), 9,11,24,26-nonaen-19-one]
Cell Number: % of positive control: 114.51 % of positive control
Cell Number: Average Total Cell Number: 21445
Sox17 Expression: % of positive control: 18.48 % of positive control
Sox17 Expression: Average Total Intensity: 3.43E+07

O=C1NCCCc2cncc(c2)-c2ncnc(n2)Nc2cccc(c2)CN2CCC1CC2 [Compound 22, 1,8,10,12,16,22,30-Heptaazapentacyclo[22.2.2.1-3,7˜0.1˜9,13˜1-14,18˜]hentriaconta-3(31), 4,6,9(30), 10,12,14(29), 15,17-nonaen-23-one]
Cell Number: % of positive control: 97.91 % of positive control
Cell Number: Average Total Cell Number: 18336
Sox17 Expression: % of positive control: 20.05 % of positive control
Sox17 Expression: Average Total Intensity: 3.72E+07

CCN1CCCc2cccc(c2)-c2ncnc(n2)Nc2cccc(c2)CCNC(=O)C1 [Compound 29, 18-Ethyl-3,5,7,15,18,28-hexaazatetracyclo[20.3.1.1˜2,6˜0.1˜8,12˜]octacosa-1(26), 2(28), 3,5,8(27), 9,11,22,24-nonaen-16-one]
Cell Number: % of positive control: 107.97 % of positive control
Cell Number: Average Total Cell Number: 20221
Sox17 Expression: % of positive control: 15.27 % of positive control
Sox17 Expression: Average Total Intensity: 2.83E+07

O=C1CCN2CCN(CC2)Cc2cc(Cl)cc(c2)Nc2ncnc(n2)-c2cncc(c2)CCCN1 [Compound 34, 5-Chloro-1,8,10,12,16,22,26,32-octaazapentacyclo[24.2.2.1˜3.7˜0.1˜9,13˜0.1˜14.18˜]tritriaconta-3(33), 4,6,9(32), 10,12,14(31), 15,17-nonaen-23-one]
Cell Number: % of positive control: 100.87 % of positive control
Cell Number: Average Total Cell Number: 18891
Sox17 Expression: % of positive control: 17.55 % of positive control
Sox17 Expression: Average Total Intensity: 3.26E+07

CCN1CC(=O)NCCCc2cncc(c2)-c2ncnc(n2)Nc2cc(Cl)cc(c2)C1 [Compound 35, 10-Chloro-14-ethyl-3,5,7,14,17,23,27-heptaazatetracyclo[19.3.1.1˜2,6˜0.1˜8,12]Theptacosa-1(25), 2(27), 3,5,8(26), 9,11,21,23-nonaen-16-one]
Cell Number, % of positive control [1]: 127.20 % of positive control
Sox17 Intensity % of positive control [1]: 13.69 % of positive control

O=C1NCCCc2cncc(c2)-c2ncnc(n2)Nc2cc(Cl)cc(c2)CN2CCCC1C2 (centres unmarked) [Compound 37, 10-Chloro-3,5,7,14,20,26,31-heptaazapentacyclo[22.3.1.1˜2,6˜0.1˜8,12˜0.1˜14,18˜]hentriaconta-1(28), 2(31), 3,5,8(30), 9,11,24,26-nonaen-19-one]
Cell Number: % of positive control: 83.32 % of positive control
Cell Number: Average Total Cell Number: 15605
Sox17 Expression: % of positive control: 14.37 % of positive control
Sox17 Expression: Average Total Intensity: 2.67E+07

CN1CCC(=O)NCCCNc2ncccc2-c2ncnc(n2)Nc2cccc(c2)C1 [Compound 39, 9-Methyl-2,3,4,5,7,8,9,10-octahydro-16H-17,21-(azeno)-11,15-(metheno)pyrido[3,2-g][1,3,5,9,13,17]hexaazacyclotricosin-6(1H)-one]
Cell Number: % of positive control: 91.28 % of positive control
Cell Number: Average Total Cell Number: 17095
Sox17 Expression: % of positive control: 15.19 % of positive control
Sox17 Expression: Average Total Intensity: 2.82E+07
